# PubChem BioAssay (NCI)
#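 Interpolation was linear, between the two tested concentrations surrounding the appropriate level; five concentrations were tested over 48 hours in 96-well plates. Here, GI50 denotes the concentration required for 50% inhibition of growth. TGI denotes the concentration required for complete inhibition of growth.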 Where a SMILES comes first, the peptide text is derived from it.
# What was measured:
# Test in all cases: inhibition of tumour cell growth, NCI panel, 48 h
# A549 NSCLC = system: A549 NSCLC
# COLO 205 colon = system: COLO 205 colon
# OVCAR-5 ovarian = system: OVCAR-5 ovarian
# MDA-MB-435 = system: MDA-MB-435
# OVCAR-3 ovarian = system: OVCAR-3 ovarian
# HOP-62 NSCLC = system: HOP-62 NSCLC
# OVCAR-8 ovarian = system: OVCAR-8 ovarian
# SK-MEL-2 melanoma = system: SK-MEL-2 melanoma
# NCI-H23 lung = system: NCI-H23 lung
# HOP-92 NSCLC = system: HOP-92 NSCLC
Structure (SMILES),TGI (A549 NSCLC) [µM],TGI (COLO 205 colon) [µM],TGI (OVCAR-5 ovarian) [µM],TGI (MDA-MB-435) [µM],TGI (OVCAR-3 ovarian) [µM],TGI (HOP-62 NSCLC) [µM],TGI (OVCAR-8 ovarian) [µM],TGI (SK-MEL-2 melanoma) [µM],TGI (NCI-H23 lung) [µM],TGI (HOP-92 NSCLC) [µM],GI50 (A549 NSCLC) [µM],GI50 (COLO 205 colon) [µM],GI50 (OVCAR-5 ovarian) [µM],GI50 (MDA-MB-435) [µM],GI50 (OVCAR-3 ovarian) [µM],GI50 (OVCAR-8 ovarian) [µM],GI50 (SK-MEL-2 melanoma) [µM],GI50 (NCI-H23 lung) [µM],GI50 (HOP-92 NSCLC) [µM]
O=S(=O)(O)c1cc(N=[N+]([O-])c2cc(S(=O)(=O)O)c3ccccc3c2)cc2ccccc12,> 100,> 100,> 100,> 100,28.2,> 100,> 100,66.1,77,> 100,,,,,,,,,
Cc1ccccc1NC(=O)CC(=O)N1N=C(N2c3ccccc3Sc3ccccc32)CC1c1ccccc1 (stereo not drawn),> 100,> 100,> 100,,> 100,> 100,> 100,,> 100,> 100,,,,,,,,,
Nc1cc(-c2ccc(Cl)cc2)nn1-c1nc2ccccc2nc1-c1ccccc1,> 100,> 100,> 100,> 100,> 100,> 100,> 100,> 100,,> 100,,,,,,,,,
COc1cc2c(cc1OCCCCCCCCN1C(=O)c3cccc4cccc(c34)C1=O)N=C[C@@H]1CCCN1C2=O,> 100,21.7,66.2,51.7,55.9,> 100,57.8,74.6,36.3,,,,,,,,,,
N#Cc1c(N)nc2c(c1-c1ccc(Br)cc1)CSc1ccccc1-2,> 100,32.2,,77.3,> 100,> 100,> 100,> 100,> 100,50.2,,,,,,,,,
CCC(C)C(NC(=O)C1CCCN1C(=O)C(CC(C)C)NC(=O)C(CC(C)C)NC(=O)C(N)CC(C)C)C(=O)NC(C(=O)NCC(=O)NC(CC(N)=O)C(=O)NC(CC(C)C)C(=O)NC(CC(C)C)C(=O)NC(CC(C)C)C(N)=O)C(C)C (stereo not drawn) (H-LLLPIVGNLLL-NH2; configuration not given here),> 50,> 50,> 50,> 50,> 50,> 50,> 50,> 50,> 50,> 50,,,,,,,,,
O=C1CC2(CCC(O)(c3cccs3)C(C(=O)c3cccs3)C2)C(=O)c2ccccc2N1 (stereo not drawn),> 100,> 100,> 100,> 100,> 100,> 100,> 100,> 100,> 100,> 100,,,,,,,,,
C1=CC(=[N+]2N=C(c3ccccc3)CC2c2ccccc2)C=CC1=C1SC(c2ccccc2)(c2ccccc2)c2ccccc21 (stereo not drawn),> 100,,> 100,> 100,> 100,> 100,> 100,> 100,> 100,> 100,,,,,,,,,
Cc1cc(=O)[nH]c(/N=C(\N)Nc2ccc(Cl)cc2)n1,> 100,,> 100,> 100,> 100,> 100,> 100,> 100,> 100,> 100,,,,,,,,,
C/C(N=Nc1nc2ccccc2[nH]1)=C1/C=CC=CN1O,> 100,> 100,> 100,> 100,> 100,> 100,> 100,> 100,> 100,> 100,,,,,,,,,
CCCCCOC(=O)c1cc2cc(CCl)ccc2oc1=O,41,16.3,31.6,14.9,19.5,32.9,> 63,2.08,17.2,7.35,,,,,,,,,
O=C1c2ccccc2C(C2c3ccccc3C(=O)c3cc(Br)ccc32)c2ccc(Br)cc21 (stereo not drawn),> 100,> 100,> 100,> 100,> 100,> 100,> 100,,> 100,> 100,,,,,,,,,
COC(CN(C=O)[C@@H](c1ccc(Cl)cc1)c1cc2ccccc2o1)OC,45.4,33.5,29.8,35.5,26.8,43.5,31.3,31.9,39.2,33.7,,,,,,,,,
NC(=S)N1N=C(c2ccccc2O)CC1c1ccccc1 (stereo not drawn),84.6,26.5,50.9,20.2,31.2,25.5,> 100,20.3,61.3,54.6,,,,,,,,,
Nc1ccc(-c2nc3cc(F)ccc3s2)cc1CO,> 100,> 100,> 100,> 100,> 100,52.1,> 100,> 62.9,42.1,43.5,,,,,,,,,
CC(=O)c1ccc2c(c1)N(CCCN1CCN(CCO)CC1)c1ccccc1C2,33.3,31.8,32.1,21.7,29.5,30.3,30.7,33.5,30.1,27.4,,,,,,,,,
CCCSc1ccc2[nH]c(N3C(=O)/C(=C/c4cc(OC)c(OC)c(OC)c4)N=C3c3ccccc3)cc2c1,> 25.3,> 30.2,> 37.5,16,26.5,> 19.2,> 37.5,> 37.5,> 37.5,36.6,,,,,,,,,
CSCCC(NC(=O)OCc1ccccc1)P(=O)(O)c1ccccc1 (stereo not drawn),> 100,> 100,> 100,> 100,> 100,> 100,> 100,> 100,> 100,> 100,,,,,,,,,
Nc1ccc(Oc2ccc(C34CC5CC(C3)CC(c3ccc(Oc6ccc(N)cc6)cc3)(C5)C4)cc2)cc1,> 60.7,> 58.7,62.2,40.7,> 32.3,> 56.7,23.6,36.2,37.4,25.8,,,,,,,,,
O=C(O)C(O)C(O)C(O)C(=O)CO (stereo not drawn),> 100,> 100,> 100,> 100,> 100,> 100,> 100,> 100,> 100,> 100,,,,,,,,,
CC(C)(C)[Si](C)(C)OCC1OC(n2cnc3c(N)ncnc32)CC1OS(C)(=O)=O (stereo not drawn),,> 100,> 100,> 100,> 100,> 100,> 100,> 100,> 100,17.3,,,,,,,,,
CCCN1C(=O)CSC1=Nc1ccc2cc3ccc(N=C4SCC(=O)N4CCC)cc3nc2c1,> 100,> 100,> 100,> 100,67.6,,> 100,> 100,> 100,0.334,> 100,> 100,> 100,> 100,22,50.7,> 100,71.1,0.0391
COc1ccc(C2c3cc4c(cc3OC(O)(CO)C2C(=O)O)OCO4)cc1 (stereo not drawn) (tested in a mixture with another compound),> 100,> 100,> 100,,54.4,> 100,48.5,71.8,50.8,41.7,,,,,,,,,
Cc1cnoc1NS(=O)(=O)c1ccc(Nc2nnc(/C=C/c3c(O)ccc4ccccc34)c(=O)n2N)cc1,> 100,,77.9,76.3,60.1,> 100,> 100,,32,> 100,,,,,,,,,
CC(C)C1OC(=O)/C=C/C=C/C=C/C=C/C=C/CC(O)C(C)C(O)CC(O)CC(O)CC(O)CC(O)CC(O)CC(O)/C=C/C1C (stereo not drawn),> 100,,> 100,> 100,> 100,> 100,> 100,> 100,> 100,> 100,,,,,,,,,
COC(=S)OC1CC(n2cnc3c(N)ncnc32)OC1CO[Si](C)(C)C(C)(C)C (stereo not drawn),,39.8,65.4,42.1,31,32.8,69.5,53.8,38.7,59.3,,,,,,,,,
COc1cc2c(cc1C)NC(=O)/C2=C/c1c(Cl)n(-c2ccccc2)c2ccccc12,> 100,18.5,> 100,45.5,28,63.7,> 100,36,81.8,> 100,,,,,,,,,
CCOC(=O)C(=O)NCCCN1CCOCC1,> 100,> 100,> 100,,> 100,> 100,> 100,> 100,> 100,> 100,,,,,,,,,
